According to patent publication US20040236519A1, “Libraries of confomationally constrained peptides, chiral azacrowns, and peptidomimetics and methods of making the same” (priority 2001, published 2004):

Experiments:
Sodium, Site 2 [1] = details: cited from earlier work
[2] = target: Potassium Channel, ATP-Sensitive; details: cited from earlier work
[3] = tested on: Potassium Channel, ATP-Sensitive; experiment: Radioligand binding assay, potassium channel, ATP-sensitive (NOVASCREEN); details: 1.0E−5 (single dose 10 μM); average, N = 2
Experimental: (§1) Evaluation of M40403 and M40401 in the following radioligand binding assays: potassium channels (ATP-sensitive, Ca2+Act., VI, potassium channel, CA2+Act., VS) and sodium channels (site 1 and site 2). M40403 and M40401 were tested at a single does of 10 µM. The list of an appropriate radioligand used in each ion channel assay is shown in Table 1. […].
(§2) Screening assays can provide valuable information about a compound's biological activity and selectivity. NOVASCREEN Biosciences Corporation of Hanover, Md. was used for these assays. To understand and assess the data, these guidelines are to be used for interpretation of the data presented:
(§3) In most assays, our standard baseline range runs from −20% to +20% inhibition of binding or enzyme activity. […]. NOVASCREEN's assays are designed to test for inhibition of binding or enzyme activity. […]. NOVASCREEN uses a criteria of 50% inhibition (or greater) to qualify a compound as active. Active compounds tested at multiple concentrations can generally be expected to show a dose-dependent response and such follow-up studies are recommended.

[4] = tested on: Potassium Channel, Ca2+ Act., VI; experiment: Radioligand binding assay, potassium channel, Ca2+ Act., VI (NOVASCREEN); details: 1.0E−5 (single dose 10 μM); average, N = 2
Experimental: as §1, §2, §3

[5] = tested on: Potassium Channel, Ca2+ Act., VS; experiment: Radioligand binding assay, potassium channel, Ca2+ Act., VS (NOVASCREEN); details: 1.0E−5 (single dose 10 μM); average, N = 2
Experimental: as §1, §2, §3

Sodium, Site 1 = experiment: Radioligand binding assay, sodium channel site 1 (NOVASCREEN); details: 1.0E−5 (single dose 10 μM); average, N = 2
Experimental: as §1, §2, §3

Sodium, Site 2 [6] = experiment: Radioligand binding assay, sodium channel site 2 (NOVASCREEN); details: 1.0E−5 (single dose 10 μM); average, N = 2
Experimental: as §1, §2, §3

human opioid μ receptor = target: T1, human opioid μ receptor (Homo sapiens, UniProt P35372); experiment: Opioid receptor binding, [3H]DAMGO, CHO cell membranes
T1 construct: expressed in transfected cells; host or cells: CHO cells, membranes
T1 sequence (P35372 whole entry): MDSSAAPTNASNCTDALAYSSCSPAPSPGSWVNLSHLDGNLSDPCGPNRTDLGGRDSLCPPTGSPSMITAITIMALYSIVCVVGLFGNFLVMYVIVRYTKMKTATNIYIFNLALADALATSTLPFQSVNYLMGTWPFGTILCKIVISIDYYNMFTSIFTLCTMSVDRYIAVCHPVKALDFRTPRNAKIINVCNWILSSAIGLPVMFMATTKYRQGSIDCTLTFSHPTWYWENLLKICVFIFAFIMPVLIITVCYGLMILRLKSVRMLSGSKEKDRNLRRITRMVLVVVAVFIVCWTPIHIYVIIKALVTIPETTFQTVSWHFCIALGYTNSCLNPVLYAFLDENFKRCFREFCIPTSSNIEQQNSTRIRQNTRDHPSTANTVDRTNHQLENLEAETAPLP
Experimental: (§4) Evaluation of M40403 binding affinity for opioid receptors in vitro radioligand binding assays. Referring to FIGS. 6-11, receptor binding studies were conducted on human opioid receptors transfected into Chinese hamster ovary (CHO) cells. The μ cell line is maintained in Ham's F-12 medium supplemented with 10% fetal bovine serum and 400 μg/ml GENETICIN (G418 sulfate). The δ cell line is maintained in Ham's F-12 medium supplemented with 10% fetal bovine serum and 500 μg/ml hygromycin B. The k cell line is maintained in Dulbecco's minimal essential medium (DMEM) supplemental with 10% fetal bovine serum, 400 μg/ml GENETICIN (G418 sulfate) and 0.1% penicillin/streptomycin. All cell lines are grown to full confluency, then harvested for membrane preparation. The membrane for binding assays is prepared in 50 mM Tris buffer, pH 7.7. Cells are harvested by scraping the plates with a rubber policeman and then centrifuged at 500×g for 10 minutes. The cell pellet is suspended in buffer A or Tris buffer, homogenized in a Polytron Homogenizer, and centrifuged at 20,000×g for 20 minutes. The cell pellet is washed in buffer A or Tris, centrifuged at 20,000×g for another 20 minutes and finally suspended in a small amount of buffer to determine protein content. Membrane is aliquoted in small vials at a concentration of 6 mg/ml per vial and stored at −70° C. and used as needed.
(§5) Routine binding assays were conducted using [^3H]DAMGO, [^3H]C1-DPDPE, and [^3H]U69,593 to bind to μ, δ and k receptors, respectively. […] Filters are dried overnight before radioactivity levels are determined. Nonspecific binding is determined by using 1.0 μM of the unlabeled counterpart of each radioligand.
(§6) Full characterization of compounds includes analysis of the data for IC50 values and Hill coefficients by using the program PRIMS. Ki values are calculated using the Cheng Prusoff transformation: [formula]
(§7) where L is radioligand concentration and Kd is the binding affinity of the radioligand, as determined previously by saturation analysis. […]

human opioid δ receptor = target: T2, human opioid δ receptor (Homo sapiens, UniProt P41143); experiment: Opioid receptor binding, [3H]Cl-DPDPE, CHO cell membranes
T2 construct: expressed in transfected cells; host or cells: CHO cells, membranes
T2 sequence (P41143 whole entry): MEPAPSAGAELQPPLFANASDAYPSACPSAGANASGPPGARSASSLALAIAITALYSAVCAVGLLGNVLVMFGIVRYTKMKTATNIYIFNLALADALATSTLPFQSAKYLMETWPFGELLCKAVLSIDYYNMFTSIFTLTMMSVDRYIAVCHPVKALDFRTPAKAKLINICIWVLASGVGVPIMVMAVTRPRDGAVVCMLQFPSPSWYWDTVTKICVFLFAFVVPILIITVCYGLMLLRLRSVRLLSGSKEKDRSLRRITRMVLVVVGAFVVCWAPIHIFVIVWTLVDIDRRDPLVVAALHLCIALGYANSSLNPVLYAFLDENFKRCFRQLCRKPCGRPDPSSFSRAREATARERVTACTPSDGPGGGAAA
Experimental: as §4, §5, §6, §7

human opioid k receptor = target: T3, human opioid k receptor (Homo sapiens, UniProt P41145); experiment: Opioid receptor binding, [3H]U69,593, CHO cell membranes; details: human receptor in CHO cell membranes, Cheng Prusoff
T3 construct: expressed in transfected cells; host or cells: CHO cells, membranes
T3 sequence (P41145 whole entry): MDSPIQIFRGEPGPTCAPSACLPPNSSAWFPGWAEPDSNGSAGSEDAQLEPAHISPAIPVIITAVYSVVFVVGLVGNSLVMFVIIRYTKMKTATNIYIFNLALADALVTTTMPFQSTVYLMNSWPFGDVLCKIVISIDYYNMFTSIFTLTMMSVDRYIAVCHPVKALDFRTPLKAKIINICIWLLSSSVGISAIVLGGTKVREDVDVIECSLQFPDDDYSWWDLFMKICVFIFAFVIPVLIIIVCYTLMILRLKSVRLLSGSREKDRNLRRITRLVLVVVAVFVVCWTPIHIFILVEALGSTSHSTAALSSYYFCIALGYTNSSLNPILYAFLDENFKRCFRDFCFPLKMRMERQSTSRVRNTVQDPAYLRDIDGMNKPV
Experimental: Evaluation of M40403 binding affinity for opioid receptors in vitro radioligand binding assays. Referring to FIGS. 6-11, receptor binding studies were conducted on human opioid receptors transfected into Chinese hamster ovary (CHO) cells. The μ cell line is maintained in Ham's F-12 medium supplemented with 10% fetal bovine serum and 400 μg/ml GENETICIN (G418 sulfate). The δ cell line is maintained in Ham's F-12 medium supplemented with 10% fetal bovine serum and 500 μg/ml hygromycin B. The k cell line is maintained in Dulbecco's minimal essential medium (DMEM) supplemental with 10% fetal bovine serum, 400 μg/ml GENETICIN (G418 sulfate) and 0.1% penicillin/streptomycin. […]
as §5, §6, §7

[7] = target: Potassium Channel, Ca2+ Act., VS; details: cited from earlier work
[8] = Competitive metal binding by ESI-MS; type: physicochemical
Experimental: The ability of these peptides to bind metals was determined by electrospray-ionization mass spectrometry (hereinafter “ESI-MS”). ESI-MS has been successfully used to study a wide variety of non-covalent interactions owing to the gentle nature of the electrospray-ionization process that allows non-covalent complexes to be introduced intact into the gas phase. Thus, ESI-MS provides equilibrium information about the solution and the relative abundance of different peptide-metal binding complexes. The peptide ligands were dissolved in 50% CH3CN or methanol and then diluted to 10 mM solution with 1 mM of CH3COONH4/10% CH3OH solution. Stock solutions (200 uM) of the metal ions (CuSO4, NiSO4, ZnSO4, HgSO4. Co(NO3)2) were made. 40 ul of the ligand solution was mixed with 40 ul of the metal-ion solution, diluted with methanol or 1 mM of CH3COONH4. The solution was treated with KOH to form the complex. Competitive binding was used to study the relative metal-binding properties of each ligand by adding two different metal ions.

[9] = target: Potassium Channel, Ca2+ Act., VI; details: radioligand of the assay; cited from earlier work
[10] = Giblin et al., cited from earlier work; for binding affinity reduced compared with the disulfide parent: rhenium complex
[11] = human receptor in CHO cell membranes, Cheng Prusoff

CCN1C[C@]2(COC)[C@H](O)C[C@H](OC)[C@@]34[C@@H]5C[C@@]6(O)[C@H](OC(=O)c7ccccc7)[C@@H]5[C@@](OC(C)=O)([C@@H]([C@H](OC)[C@H]23)[C@@H]14)[C@@H](O)[C@@H]6OC [Aconitine]
Ki (Sodium, Site 2 [1]; reference compound, radioligand [3H]Bactrachotoxin A 20-a-Benzo, read-out: Ki (M) Ref. Cpd.): 8.38e-07 M

COc1ccc(Cl)cc1C(=O)NCCc1ccc(S(=O)(=O)NC(=O)NC2CCCCC2)cc1 [Glibenclamide]
Ki ([2]; reference compound, radioligand [3H]Glibenclamide, read-out: Ki (M) Ref. Cpd.): 7.85e-10 M

[Cl-].[Cl-].[Mn+2].c1cc2nc(c1)CN[C@@H]1CCCC[C@H]1NCCN[C@@H]1CCCC[C@H]1NC2 [M40403]
Percent Inhibition [3]: 4.67% | Percent Inhibition [4]: 30.35% | Percent Inhibition [5]: 9.72% | Percent Inhibition (Sodium, Site 1): −19.68% | Percent Inhibition (Sodium, Site 2 [6]): 93.84% | IC50 (human opioid μ receptor; Hot Ligand [3H]DAMGO, Jul. 2, 1999 and confirmation Jul. 5, 1999, read-out: IC50, MU Binding): > 10000 nM | Ki (human opioid μ receptor; [11]): > 10000 nM | affinity for mu receptors (human opioid μ receptor; summary in words): no significant affinity | IC50 (human opioid δ receptor; Hot Ligand [3H]DPDPE-CL, Jul. 2, 1999 and confirmation Jul. 5, 1999, read-out: IC50, Delta Binding): > 10000 nM | Ki (human opioid δ receptor; [11]): > 10000 nM | affinity for delta receptors (human opioid δ receptor; summary in words): no significant affinity | Ki (human opioid k receptor): ~240 nM | Ki (human opioid k receptor; listed as 20,636): 240 ± 121 nM

COc1ccc(Cl)cc1C(=O)NCCc1ccc(S(=O)(=O)NC(=O)NC2CCCCC2)cc1 [[3H]Glibenclamide]
Kd ([2]; radioligand of the assay): 0.25 nM

Charybdotoxin
Ki ([7]; reference compound, radioligand [125I]Charybdotoxin, read-out: Ki (M) Ref. Cpd.): 5.12e-10 M

H-Val-Ψ(CONOH)-Phe-Ala-Pro-Leu-CONOH [compound 14]
metal-binding ability ([8]; among the peptides containing two hydroxymate groups, competitive binding): strongest metal-binding ability | metal-binding specificity ([8]; competitive binding with two different metal ions): Cu(II)>Co(II)>Fe(III)>Cd(II)>Zn(II)>Ni(II)

[3H]Bactrachotoxin A 20-a-Benzo
Kd (Sodium, Site 2 [1]; radioligand of the assay): 32 nM

[125I]Apamin
Kd [9]: 0.07 nM

[125I]Charybdotoxin
Kd ([7]; radioligand of the assay): 0.1 nM

[Cys^3,4,10, D-Phe7]-α-Msh4-13
binding affinity improved over the previous rhenium complex [10]: 25 fold | binding affinity reduced compared with the disulfide parent [10]: 4 fold

[Cys^4,10, D-Phe7]-α-Msh4-13
binding affinity reduced compared with the disulfide parent [10]: approximately 100 fold
